Structures are written as SMILES. pIC50: −log10 of the molar value.

The target of data set [1] is Insulin receptor (Homo sapiens, UniProt P06213). Nature of the data set: Inhibition of IRK.
Data set [2] concerns Mus musculus. Nature of the data set: Inhibition of anti-CD3-induced IL2 production in sc dosed mouse. Format: functional, organism-based.
The target of data set [3] is T1, Tyrosine-protein kinase ITK/TSK (Homo sapiens, UniProt Q08881).
T1 sequence (Q08881 whole entry): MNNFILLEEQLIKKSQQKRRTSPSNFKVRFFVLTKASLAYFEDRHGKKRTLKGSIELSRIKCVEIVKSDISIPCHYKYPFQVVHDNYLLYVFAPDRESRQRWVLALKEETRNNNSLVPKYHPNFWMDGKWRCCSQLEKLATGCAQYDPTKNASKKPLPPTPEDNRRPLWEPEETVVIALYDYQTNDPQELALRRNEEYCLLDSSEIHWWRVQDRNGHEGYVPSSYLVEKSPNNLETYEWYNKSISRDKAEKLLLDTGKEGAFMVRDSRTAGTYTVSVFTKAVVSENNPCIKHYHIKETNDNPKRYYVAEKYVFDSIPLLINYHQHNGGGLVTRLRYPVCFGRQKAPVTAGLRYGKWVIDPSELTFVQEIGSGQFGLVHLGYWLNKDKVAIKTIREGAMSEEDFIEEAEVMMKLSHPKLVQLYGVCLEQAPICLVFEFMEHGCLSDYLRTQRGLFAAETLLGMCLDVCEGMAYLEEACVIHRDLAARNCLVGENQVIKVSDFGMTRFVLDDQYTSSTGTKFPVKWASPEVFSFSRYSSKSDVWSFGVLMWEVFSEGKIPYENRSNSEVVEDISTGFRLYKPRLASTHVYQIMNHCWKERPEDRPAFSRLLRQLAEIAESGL
Nature of the data set: Inhibition of recombinant ITK by DELFIA assay.

Data set [4] has as its target Cytochrome P450 3A4 (Homo sapiens, UniProt P08684). Nature of the data set: Inhibition of CYP3A4. Format: ADME.
Data set [5] has as its system Jurkat. Nature of the data set: Cytotoxicity against human JURKAT cells. Format: functional. The conditions noted are these: read-out: TC50 (the source's name).
Data set [6] deals with T2, Tyrosine-protein kinase Tec (Homo sapiens, UniProt P42680).
T2 sequence (P42680 whole entry): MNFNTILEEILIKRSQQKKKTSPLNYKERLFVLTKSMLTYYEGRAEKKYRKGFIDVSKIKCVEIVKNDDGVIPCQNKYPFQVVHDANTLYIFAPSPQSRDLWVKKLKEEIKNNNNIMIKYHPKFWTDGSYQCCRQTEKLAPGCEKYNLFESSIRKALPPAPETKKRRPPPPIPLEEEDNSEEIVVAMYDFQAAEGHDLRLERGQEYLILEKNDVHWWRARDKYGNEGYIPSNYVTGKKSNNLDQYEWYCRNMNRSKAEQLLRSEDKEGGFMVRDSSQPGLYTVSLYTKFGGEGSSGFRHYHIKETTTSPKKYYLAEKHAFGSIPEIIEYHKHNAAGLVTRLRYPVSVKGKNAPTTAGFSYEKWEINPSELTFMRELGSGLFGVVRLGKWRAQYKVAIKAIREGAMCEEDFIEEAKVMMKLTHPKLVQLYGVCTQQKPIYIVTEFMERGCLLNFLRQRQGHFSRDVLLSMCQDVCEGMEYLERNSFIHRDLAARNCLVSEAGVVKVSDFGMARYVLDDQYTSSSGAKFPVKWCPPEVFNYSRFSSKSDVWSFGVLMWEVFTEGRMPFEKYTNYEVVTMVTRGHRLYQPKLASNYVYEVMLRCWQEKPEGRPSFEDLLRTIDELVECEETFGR
Nature of the data set: Inhibition of Tec kinase.

The target of data set [7] is Tyrosine-protein kinase Lyn (Homo sapiens, UniProt P07948). Nature of the data set: Inhibition of Lyn.
Data set [8] has as its target T3, Tyrosine-protein kinase TXK (Homo sapiens, UniProt P42681).
T3 sequence (P42681 whole entry): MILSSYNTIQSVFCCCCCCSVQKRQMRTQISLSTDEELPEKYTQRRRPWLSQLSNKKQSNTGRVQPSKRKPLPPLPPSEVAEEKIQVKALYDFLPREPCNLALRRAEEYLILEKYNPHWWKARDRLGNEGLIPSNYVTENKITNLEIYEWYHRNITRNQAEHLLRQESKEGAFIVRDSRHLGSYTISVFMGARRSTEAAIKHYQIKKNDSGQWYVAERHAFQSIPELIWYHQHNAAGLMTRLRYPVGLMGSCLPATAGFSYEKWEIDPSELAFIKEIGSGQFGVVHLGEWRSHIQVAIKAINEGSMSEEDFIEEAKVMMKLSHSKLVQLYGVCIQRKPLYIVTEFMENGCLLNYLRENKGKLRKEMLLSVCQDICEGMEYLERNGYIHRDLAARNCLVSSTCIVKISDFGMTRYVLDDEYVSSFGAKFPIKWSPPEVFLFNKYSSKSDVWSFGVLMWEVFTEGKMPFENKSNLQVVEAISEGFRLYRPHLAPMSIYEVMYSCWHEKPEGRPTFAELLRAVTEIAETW
Nature of the data set: Inhibition of TXK.

Data set [9] concerns the target Cytochrome P450 2C9 (Homo sapiens, UniProt P11712). Nature of the data set: Inhibition of CYP2C9. The data set is classed as ADME.

Cytochrome P450 2C9, sequence (P11712 whole entry): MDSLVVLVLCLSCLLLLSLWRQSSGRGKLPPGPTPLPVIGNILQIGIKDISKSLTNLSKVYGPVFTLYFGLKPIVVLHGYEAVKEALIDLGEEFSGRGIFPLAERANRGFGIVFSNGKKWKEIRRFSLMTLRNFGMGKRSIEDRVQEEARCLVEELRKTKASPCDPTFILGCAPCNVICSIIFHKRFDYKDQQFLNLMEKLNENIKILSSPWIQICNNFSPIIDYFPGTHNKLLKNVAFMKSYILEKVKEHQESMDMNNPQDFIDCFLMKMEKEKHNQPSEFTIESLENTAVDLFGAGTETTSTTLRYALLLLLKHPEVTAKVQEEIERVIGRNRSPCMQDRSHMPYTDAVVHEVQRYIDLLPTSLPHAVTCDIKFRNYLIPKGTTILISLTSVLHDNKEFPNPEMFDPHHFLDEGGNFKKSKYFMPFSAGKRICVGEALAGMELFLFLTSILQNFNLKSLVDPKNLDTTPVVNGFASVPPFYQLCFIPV
Tyrosine-protein kinase Lyn, sequence (P07948 whole entry): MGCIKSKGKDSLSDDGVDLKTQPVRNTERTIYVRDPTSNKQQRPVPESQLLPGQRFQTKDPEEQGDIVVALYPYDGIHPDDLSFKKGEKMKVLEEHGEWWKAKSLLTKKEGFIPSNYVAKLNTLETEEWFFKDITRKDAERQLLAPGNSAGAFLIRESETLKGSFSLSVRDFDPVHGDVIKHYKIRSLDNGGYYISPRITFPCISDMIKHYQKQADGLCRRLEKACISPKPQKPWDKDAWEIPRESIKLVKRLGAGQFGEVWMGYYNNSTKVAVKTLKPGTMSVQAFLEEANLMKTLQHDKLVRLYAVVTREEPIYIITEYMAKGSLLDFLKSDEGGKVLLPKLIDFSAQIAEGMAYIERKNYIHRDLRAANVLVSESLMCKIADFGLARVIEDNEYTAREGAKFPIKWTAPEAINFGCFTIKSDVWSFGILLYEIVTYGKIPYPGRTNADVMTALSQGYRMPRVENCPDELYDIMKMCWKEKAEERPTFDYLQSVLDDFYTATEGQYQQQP
Cytochrome P450 3A4, sequence (P08684 whole entry): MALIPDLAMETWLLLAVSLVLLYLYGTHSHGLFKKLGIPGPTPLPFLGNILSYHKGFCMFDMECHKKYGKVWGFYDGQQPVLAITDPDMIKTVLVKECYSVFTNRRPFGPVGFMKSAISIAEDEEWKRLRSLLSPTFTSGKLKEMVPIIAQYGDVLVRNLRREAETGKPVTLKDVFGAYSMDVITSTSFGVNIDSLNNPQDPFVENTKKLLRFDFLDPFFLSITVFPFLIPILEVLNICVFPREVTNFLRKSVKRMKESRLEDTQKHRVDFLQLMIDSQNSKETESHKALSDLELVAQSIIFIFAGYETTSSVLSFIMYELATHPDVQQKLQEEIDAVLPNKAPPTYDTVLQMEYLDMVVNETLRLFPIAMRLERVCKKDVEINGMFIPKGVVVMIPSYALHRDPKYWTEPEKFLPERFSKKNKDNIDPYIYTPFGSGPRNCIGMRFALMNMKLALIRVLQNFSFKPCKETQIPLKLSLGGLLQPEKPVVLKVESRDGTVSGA
Insulin receptor, sequence (P06213 28-758 limits assumed): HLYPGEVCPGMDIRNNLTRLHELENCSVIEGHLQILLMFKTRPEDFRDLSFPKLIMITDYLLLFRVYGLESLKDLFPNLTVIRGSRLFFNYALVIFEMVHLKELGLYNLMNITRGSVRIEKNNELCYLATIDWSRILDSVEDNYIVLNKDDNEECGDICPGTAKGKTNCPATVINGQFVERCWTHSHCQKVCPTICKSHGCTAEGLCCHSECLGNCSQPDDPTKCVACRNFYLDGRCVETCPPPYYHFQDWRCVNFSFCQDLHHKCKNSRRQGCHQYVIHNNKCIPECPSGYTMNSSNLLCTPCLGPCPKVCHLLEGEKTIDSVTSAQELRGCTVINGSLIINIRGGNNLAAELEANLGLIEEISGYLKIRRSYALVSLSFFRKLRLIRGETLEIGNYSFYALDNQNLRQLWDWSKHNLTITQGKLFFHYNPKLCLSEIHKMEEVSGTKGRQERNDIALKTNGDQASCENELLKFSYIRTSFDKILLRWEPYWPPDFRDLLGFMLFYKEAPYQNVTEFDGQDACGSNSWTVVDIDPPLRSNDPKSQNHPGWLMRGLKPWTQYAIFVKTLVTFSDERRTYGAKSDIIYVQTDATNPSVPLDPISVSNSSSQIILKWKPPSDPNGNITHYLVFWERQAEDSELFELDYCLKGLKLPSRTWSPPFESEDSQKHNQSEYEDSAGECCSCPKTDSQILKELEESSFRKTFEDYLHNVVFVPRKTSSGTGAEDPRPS
Insulin receptor, sequence (P06213 763-1382 limits assumed): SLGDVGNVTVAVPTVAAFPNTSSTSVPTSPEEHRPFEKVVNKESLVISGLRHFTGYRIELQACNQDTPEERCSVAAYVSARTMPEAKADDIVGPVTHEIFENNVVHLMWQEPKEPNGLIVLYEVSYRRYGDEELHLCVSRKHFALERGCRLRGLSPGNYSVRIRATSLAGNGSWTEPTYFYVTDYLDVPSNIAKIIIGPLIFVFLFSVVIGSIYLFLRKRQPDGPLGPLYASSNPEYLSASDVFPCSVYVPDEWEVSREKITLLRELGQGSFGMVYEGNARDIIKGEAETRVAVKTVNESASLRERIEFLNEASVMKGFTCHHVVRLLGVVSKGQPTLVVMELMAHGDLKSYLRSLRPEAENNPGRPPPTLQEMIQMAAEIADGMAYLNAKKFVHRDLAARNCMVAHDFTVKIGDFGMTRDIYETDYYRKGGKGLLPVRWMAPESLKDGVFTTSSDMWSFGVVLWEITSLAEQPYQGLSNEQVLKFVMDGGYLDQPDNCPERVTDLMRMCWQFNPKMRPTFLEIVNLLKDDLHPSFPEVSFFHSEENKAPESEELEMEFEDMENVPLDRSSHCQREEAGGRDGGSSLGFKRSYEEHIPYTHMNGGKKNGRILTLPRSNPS

Compound `CN(C(=O)c1ccccc1)c1ccc2c(c1)nc(NC(=O)c1ccc(C#N)nc1)n2CCC(N)=O` had a pIC50 in data set [1] of under 5.00.

As for `CC(=O)N1CCN(C(=O)c2cc(CSc3cnc(NC(=O)c4ccc(CNC(C)C(C)(C)C)cc4)s3)cc(C)c2C)CC1` (configuration not stated), the Activity entry in data set [2] was “Dose-dependent effect”.

For `CCN(C(=O)c1ccccc1)c1ccc2c(c1)nc(NC(=O)c1ccno1)n2CCC(N)=O`, the pIC50 in data set [3] was 7.57.

For `CCN(C(=O)c1ccccc1)c1ccc2c(c1)nc(NC(=O)c1ccc(C#N)cc1)n2CCC(N)=O`, the Activity in data set [4] and in [9] was over 30 µM each time. For the same compound, the CC50 in [5] was over 10 µM. Besides, the pIC50 in data set [1] is under 5.00; in [6], under 5.00; in [7], under 5.00; in data set [8], 6.51.

As to `CN(C(=O)c1ccccc1)c1ccc2c(c1)nc(NC(=O)c1ccoc1)n2CCC(N)=O`, the pIC50 in [1] is 6.49; in data set [3], 8.00.

In data set [1], `Cc1cc(C(=O)Nc2nc3cc(N(C)C(=O)c4ccccc4)ccc3n2CCC(N)=O)ccc1C#N` had a pIC50 of under 5.00.

For `CN(C(=O)c1ccccc1)c1ccc2c(c1)nc(NC(=O)c1ccc(C#N)cc1)n2CCC(N)=O`, the Activity in [4] and in data set [9] was over 30 µM each time. Besides, in [5], the CC50 is over 10 µM. Besides, the pIC50 in data set [1] was under 5.00; in data set [6], under 5.00; in [7], under 5.00; in [8], 6.25.

For the compound `CN(C(=O)c1ccccc1)c1ccc2c(c1)nc(NC(=O)c1ccc(Cl)cc1)n2CCC(N)=O`, the Activity in [4] and in data set [9] was over 30 µM throughout. Moreover, the CC50 in [5] worked out at 5.8 µM. The pIC50 is under 5.00 in data set [6], under 5.00 in data set [7] and 6.30 in [8].

The compound `CN(C(=O)c1ccccc1)c1ccc2c(c1)nc(NC(=O)c1ccno1)n2CCC(N)=O` gave a pIC50 in [1] of under 5.00.

Broadly, the pIC50 is the negative decadic logarithm of the IC50, by convention in mol/L.

The values above are taken from ChEMBL document CHEMBL1142466, “Itk kinase inhibitors: initial efforts to improve the metabolical stability and the cell activity of the benzimidazole lead” (Bioorg Med Chem Lett, 2008).
